Test results published in paper PMC6070976, “Interaction of Ochratoxin A and Its Thermal Degradation Product 2′R-Ochratoxin A with Human Serum Albumin” (Toxins, 2018).

Legend:
[1] = biological target: T1, human serum albumin (HSA) (Homo sapiens, UniProt P02768); assay: fluorescence quenching/enhancement and anisotropy titrations; also equilibrium dialysis, HSA affinity chromatography, CD; type: binding; conditions: read-out: logK (Hyperquad, Figure 3) (converted)
T1 construct: gene ALB

[2] = biological target: T1, human serum albumin (HSA); assay: equilibrium dialysis; also fluorescence titrations and anisotropy, HSA affinity chromatography, CD; type: binding; conditions: read-out: % bound

T1 sequence (P02768 25-609): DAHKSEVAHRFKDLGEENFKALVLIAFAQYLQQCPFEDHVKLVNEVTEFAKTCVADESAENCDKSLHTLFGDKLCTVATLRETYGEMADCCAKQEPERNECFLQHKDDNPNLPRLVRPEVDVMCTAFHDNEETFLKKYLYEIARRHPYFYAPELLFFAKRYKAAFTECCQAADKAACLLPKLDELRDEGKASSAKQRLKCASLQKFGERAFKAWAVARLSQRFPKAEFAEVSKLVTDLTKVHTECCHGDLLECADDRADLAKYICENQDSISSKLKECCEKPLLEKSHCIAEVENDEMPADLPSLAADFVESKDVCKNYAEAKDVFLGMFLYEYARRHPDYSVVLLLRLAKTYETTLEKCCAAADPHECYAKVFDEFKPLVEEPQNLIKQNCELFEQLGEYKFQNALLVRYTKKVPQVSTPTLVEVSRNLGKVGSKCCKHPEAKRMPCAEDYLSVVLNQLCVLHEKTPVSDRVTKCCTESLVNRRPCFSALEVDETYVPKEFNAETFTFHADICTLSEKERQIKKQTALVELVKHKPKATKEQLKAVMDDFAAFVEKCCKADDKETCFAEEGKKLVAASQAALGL

SMILES	Kd [1] [nM]	fraction unbound [2]
C[C@@H]1Cc2c(Cl)cc(C(=O)N[C@H](Cc3ccccc3)C(=O)O)c(O)c2C(=O)O1 [2′R-OTA, 2′R-Ochratoxin A]	589	–
C[C@@H]1Cc2c(Cl)cc(C(=O)N[C@@H](Cc3ccccc3)C(=O)O)c(O)c2C(=O)O1 [OTA, Ochratoxin A]	–	< 0.004
